Experimental data reported in patent US20180140602A1, “COMBINATION OF CHIMERIC ANTIGEN RECEPTOR THERAPY AND AMINO PYRIMIDINE DERIVATIVES” (Novartis AG, priority 2015, published 2018).
“Also recorded” adds a separate entry of the source.

Tests used:
MCL-RL cells = assay: MCL-RL systemic xenograft model in NSG mice; assay type: in vivo
Mino cells = assay: MTT assay, sensitivity to ibrutinib; assay type: cell-based; details: Homo sapiens, read-out: IC50, inhibition of proliferation
mantle cell lymphoma = details: MCL patients; cited from earlier work
ITK = target: T1, ITK (Homo sapiens, UniProt Q08881); assay: ITK phosphorylation (pITK-Y180) in stimulated CART19 cells; assay type: cell-based
T1 sequence (Q08881 1-620): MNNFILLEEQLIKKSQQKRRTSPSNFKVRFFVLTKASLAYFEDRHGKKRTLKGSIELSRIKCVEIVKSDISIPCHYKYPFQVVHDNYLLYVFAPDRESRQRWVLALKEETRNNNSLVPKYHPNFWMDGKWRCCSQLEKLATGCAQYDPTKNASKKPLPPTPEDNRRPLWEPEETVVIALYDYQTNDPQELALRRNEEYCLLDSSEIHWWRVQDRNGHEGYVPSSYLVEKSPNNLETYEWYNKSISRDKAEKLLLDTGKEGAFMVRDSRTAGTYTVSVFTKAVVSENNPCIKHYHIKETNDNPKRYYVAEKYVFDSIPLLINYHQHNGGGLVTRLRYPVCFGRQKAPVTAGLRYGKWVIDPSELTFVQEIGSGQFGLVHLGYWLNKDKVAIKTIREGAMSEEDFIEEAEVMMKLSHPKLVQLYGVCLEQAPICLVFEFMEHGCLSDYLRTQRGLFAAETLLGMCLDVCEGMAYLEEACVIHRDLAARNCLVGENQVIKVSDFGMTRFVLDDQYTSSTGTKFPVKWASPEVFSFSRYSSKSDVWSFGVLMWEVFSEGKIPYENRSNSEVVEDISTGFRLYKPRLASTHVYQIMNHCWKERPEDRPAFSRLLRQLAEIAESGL
Description: See Dubovsky et al. Blood 122.15(2013):2539-49.

RL cells [1] = assay: Sensitivity to ibrutinib by reduction of bioluminescence; assay type: cell-based, human; details: 0.1 nM to 10 μM
Jeko-1 cells [2] = assay: MTT assay, sensitivity to ibrutinib; assay type: cell-based; details: Homo sapiens; Jeko-1, MTT assay; read-out: IC50, inhibition of proliferation
CART19 cells [3] = details: supra-physiologic concentrations
MCL = MCL treated with ibrutinib monotherapy; cited from earlier work
Jeko-1 cells [4] = assay: Sensitivity to ibrutinib by reduction of bioluminescence; assay type: cell-based, human; details: 0.1 nM to 10 μM
CART19 cells [5] = assay: level of circulating CART19 cells under ibrutinib treatment (Example 42); assay type: in vivo; details: data shown in Example 42
RL cells [6] = assay: MTT assay, sensitivity to ibrutinib; assay type: cell-based; details: Homo sapiens, read-out: IC50, inhibition of proliferation
[7] = patients; cited from earlier work

With `C=CC(=O)N1CCC[C@@H](n2nc(-c3ccc(Oc4ccccc4)cc3)c3c(N)ncnc32)C1` [ibrutinib, 1-[(3R)-3-[4-Amino-3-(4-phenoxyphenyl)-1H-pyrazolo[3,4-d]pyrimidin-1-yl]piperidin-1-yl]prop-2-en-1-one] the median overall survival (MCL-RL cells; 25 mg/kg/day) was 81 days, the median overall survival (MCL-RL cells; 125 mg/kg/day) was 100 days and the “effect on tumor burden / tumor growth (bioluminescence)” value (MCL-RL cells; MCL-RL engrafted NSG mice) was “dose-related sensitivity; also recorded: modestly delayed tumor growth at early time points”. The IC50 (Mino cells) was no more than 10 µM, the “duration of median response” value (mantle cell lymphoma) was 17.5 months and the “patients who do not respond” value (mantle cell lymphoma) was “about 30%”. The “phosphorylated ITK (pITK-Y180)” value (ITK; non-specific stimulation via the TCR) was “reduction in phosphorylated ITK”, the ITK activation (ITK; specific stimulation via the CAR) was “did not lead to diminished ITK activation” and the “sensitivity to ibrutinib (reduction of bioluminescence)” value (RL cells [1]) was “sensitive to ibrutinib treatment in a dose-dependent manner”. For the same molecule, the IC50 (Jeko-1 cells [2]) was no more than 10 µM, the “effect on CART19 cell functions” value (CART19 cells [3]) was “inhibition of CART19 cell functions” and the “median duration of response” value (MCL) was “about 17.5 months”. The “sensitivity to ibrutinib (reduction of bioluminescence)” value (Jeko-1 cells [4]) was “resistant to ibrutinib treatment”, the “level of circulating CART19 cells” value (CART19 cells [5]) was “increases the level of circulating CART19 cells” and the IC50 (RL cells [6]) was 0.01 µM. For the same molecule, the “mean peak concentration in serum” value [7] was 100 to 150 ng/mL.
